Measured values: patent US5382670A, “Platelet activating factor antagonists” (priority 1993, dated 1995)
Where a name gives a salt, the structure may show the parent alone.

target: PAF receptor (Oryctolagus cuniculus, UniProt G1TEI7); experiment: PAF receptor binding assay: inhibition of specific [3H]C18-PAF binding to rabbit platelet membranes; settings: 0.6 nM [3H]C18-PAF, 60 min, 22-23 °C, Ki from IC50 (Cheng and Prusoff), read-out: Ki (PAF Receptor Binding Activity)
Method: The ability of representative compounds of the present invention to inhibit PAF activity was determined in an in vitro test using the following method.
Citrated whole rabbit blood was obtained from Pel-Freez (Rogers, AR). Rabbit platelets were prepared by centrifugation and washing. The platelets were lysed by freeze-thawing and sonication; platelet membranes were prepared by centrifugation and washing. Final membrane preparations were stored frozen in 10 mM Tris/5 mM MgCl2 /2 mM EDTA (TME buffer, pH 7.0) with 0.25M sucrose added for membrane stabilization.
The standard PAF receptor binding assay contained 10 μg platelet membrane protein, 0.6 nM [^3 H]C18 -PAF (from Amersham or New England Nuclear; specific activity 120-180 Ci/mmol), with and without test compound, in "binding buffer" consisting of TME with 0.25% bovine serum albumin added (Sigma, RIA grade). The final volume of the assay was 100 μl. The assay was conducted in Millititre-GV™ (Millipore Corp.) filtration plates; incubation time was for 60 minutes at room temperature (22°-23° C.). "Specific binding" was operationally defined as the arithmetic difference between "total binding" of 0.6 nM [^3 H]C18 -PAF (in the abasence of added PAF) and "nonspecific binding" (in the presence of 1 μM PAF). After the prescribed incubation, platelet membranes were filtered under vacuum, and washed with 1 milliliter of "binding buffer". The filters were dried and removed. The bound radioactivity was quantitated with a Berthold TLC-Linear Analyzer model LB2842.
Dose-response curves of inhibition of specific [^3 H]C18 -PAF binding by test compounds were conducted in triplicate, with at least four doses covering the active range. Experiments were repeated at least once. IC50 values (concentration producing 50% inhibition) were determined by point-to-point evaluation. Ki values of inhibitory binding constants were calculated according to the method of Cheng and Prusoff [Biochem. Pharmacol. 22 (1973) 3099-3108] whereby [formula]
The values of Ki for representative compounds of the present invention appear in Table 1.

Sequence of PAF receptor (G1TEI7 1-342): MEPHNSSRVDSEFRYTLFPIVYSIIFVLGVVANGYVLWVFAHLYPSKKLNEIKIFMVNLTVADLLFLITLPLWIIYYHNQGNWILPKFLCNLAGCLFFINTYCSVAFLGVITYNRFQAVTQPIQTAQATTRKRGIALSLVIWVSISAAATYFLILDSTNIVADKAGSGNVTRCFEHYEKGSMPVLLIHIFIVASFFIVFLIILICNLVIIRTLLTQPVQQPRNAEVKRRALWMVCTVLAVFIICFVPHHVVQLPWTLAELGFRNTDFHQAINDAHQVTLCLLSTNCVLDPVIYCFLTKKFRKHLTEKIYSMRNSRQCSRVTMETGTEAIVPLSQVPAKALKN

Molecule	Ki
1-ethoxycarbonyl-3-[2-(3-pyridinyl)thiazolid-4-oyl]indole oxalate [Example 41]	4 nM
CC(C)(C)OC(=O)n1cc(C(=O)[C@@H]2CS[C@H](c3cccnc3)S2)c2ccccc21 (relative stereo) [Example 29, cis-1-tert-butoxycarbonyl-3-[2-(3-pyridinyl)dithiolan-4-oyl]indole hydrochloride]	180 nM
CC(C)(C)OC(=O)n1cc(C(=O)[C@@H]2CS[C@@H](c3cccnc3)S2)c2ccccc21 (relative stereo) [Example 30, trans 1-tert-butoxycarbonyl-3-[2-(3-pyridinyl)dithiolan-4-oyl]indole oxalate]	900 nM
CN(C)C(=O)n1cc(C(=O)[C@@H]2CS[C@H](c3cccnc3)N2C(=O)C(F)(F)F)c2ccccc21 (relative stereo) [Example 104, cis-1-dimethylcarbamoyl-3-[2-(3-pyridinyl)-3-trifluoroacetylthiazolid-4-oyl]indole]	650 nM
CN(C)C(=O)n1cc(C(=O)[C@@H]2CS[C@H](c3cccnc3)N2C(=O)C(F)(F)F)c2ccccc21 (relative stereo) [Example 105, cis-1-dimethylcarbamoyl-3-[2-(3-pyridinyl)-3-trifluoroacetylthiazolid-4-oyl]indole oxalate]	175 nM
CN(C)C(=O)n1cc(C(=O)[C@@H]2CS[C@@H](c3cccnc3)N2C(=O)C(F)(F)F)c2ccccc21 (relative stereo) [Example 106, trans-1-dimethylcarbamoyl-3-[2-(3-pyridinyl)-3-trifluoroacetylthiazolid-4-oyl]indole]	80 nM
O=C(c1c[nH]c2ccccc12)C1CSC(c2cccnc2)N1C(=O)C(F)(F)F (single isomer, unassigned; isomer 1) [Example 102, 3-[2-(3-pyridinyl)-3-trifluoroacetylthiazolid-4-oyl]indole,isomer 1]	2700 nM
O=C(c1c[nH]c2ccccc12)C1CSC(c2cccnc2)N1C(=O)C(F)(F)F (single isomer, unassigned; isomer 2) [Example 103, 3-[2-(3-pyridinyl)-3-trifluoroacetylthiazolid-4-oyl]indole, isomer 2]	2800 nM
O=C(C1CSC(c2cccnc2)N1)n1ccc2c(Cl)cccc21 (centres unmarked) [Example 5, 1-[2-(3-pyridinyl)thiazolid-4-oyl]-4-chloroindole dihydrochloride]	33 nM
Cc1c(C(=O)C2CSC(c3cccnc3)N2)c2ccccc2n1C (centres unmarked) [Example 21, 1.2-dimethyl-3-[2-(3-pyridinyl)thiazolid-4-oyl]indole oxalate]	105 nM
CC(C)(C)OC(=O)n1cc(C(=O)C2CSC(c3cccnc3)N2)c2ccccc21 (centres unmarked) [Example 28, 1-tert-butoxycarbonyl-3-[2-(3-pyridinyl)thiazolid-4-oyl]indole oxalate]	2 nM
O=C(c1c[nH]c2ccccc12)C1CSC(c2cccnc2)S1 (centres unmarked) [Example 31, 3-2-(3-pyridinyl)dithiolan-4-oyl]indole oxalate]	1700 nM

The remaining lines, values ahead:

Ki	Molecule
150 nM	CN(C)C(=O)n1cc(C(=O)[C@@H]2CS[C@H](c3cccnc3)N2C=O)c2ccccc21 (relative stereo) [Example 97, cis-1-Dimethylcarbamoyl-3-[2-(3-pyridinyl)-3-formylthiazolid-4-oyl]indole]
75 nM	CN(C)C(=O)n1cc(C(=O)[C@@H]2CS[C@@H](c3cccnc3)N2C(=O)C(F)(F)F)c2ccccc21 (relative stereo) [Example 107, trans-1-dimethylcarbamoyl 1-34 2-(3-pyridinyl)-3-trifluoroacetylthiazolid-4-oyl]indole oxalate]
250 nM	CN(C)C(=O)n1cc(C(=O)C2CSC(c3cccnc3)N2C(=O)C(F)(F)F)c2ccc(OCc3ccccc3)cc21 (single isomer, unassigned; isomer 1) [Example 108, 1-dimethylcarbamoyl-3-[2-(3-pyridinyl)-3-trifluoroacetylthiazolid-4-oyl]-6-phenylmethoxyindole, isomer 1]
70 nM	CN(C)C(=O)n1cc(C(=O)C2CSC(c3cccnc3)N2C(=O)C(F)(F)F)c2ccc(OCc3ccccc3)cc21 (single isomer, unassigned; isomer 2) [Example 109, 1-dimethylcarbamoyl-3-[2-[3-pyridinyl)-3-trifluoroacetylthiazolid-4-oyl]-6-phenylmethoxyindole, isomer 2]
7 nM	O=C(C1CSC(c2cccnc2)N1)n1ccc2cc(OCc3ccccc3)ccc21 (centres unmarked) [Example 1, 1-[2-(3-pyridinyl)thiazolid-4-oyl]-5-phenylmethoxyindole]
12 nM	O=C(c1ccccc1)c1cccc2c1ccn2C(=O)C1CSC(c2cccnc2)N1 (centres unmarked) [Example 7, 1-[2-(3-pyridinyl)thiazolid-4-oyl]-4-benzoylindole dihydrochloride]
4 nM	COc1cc(C(=O)c2cccc3c2ccn3C(=O)C2CSC(c3cccnc3)N2)cc(OC)c1OC (centres unmarked) [Example 8, 1-[2-(3-pyridinyl)thiazolid-4-oyl]-4-(3,4,5-trimethoxybenzoyl)indole]
15 nM	O=C(C1CSC(c2cccnc2)N1)n1ccc2cc(OCc3ccccc3)ccc21 (centres unmarked) [Example 11, 1-(2-(3-pyridinyl)thiazolid-4-oyl)-5-phenylmethoxyindole dihydrochloride]
93 nM	O=C(c1ccccc1)c1ccc2ccn(C(=O)C3CSC(c4cccnc4)N3)c2c1 (centres unmarked) [Example 17, 1-[2-(3-pyridinyl)thiazolid-4-oyl]-6-benzoylindole]
52 nM	O=C(C1CSC(c2cccnc2)N1)n1ccc2ccc(OCc3ccccc3)cc21 (centres unmarked) [Example 18, 1-(2-(3-pyridinyl)thiazolid-4-oyl)-6-phenylmethoxyindole oxalate]
23 nM	O=C(c1c[nH]c2ccc(OCc3ccccc3)cc12)C1CSC(c2cccnc2)N1 (centres unmarked) [Example 23, 3-(2-(3-pyridinyl)thiazolid-4-oyl])-5-phenylmethoxyindole oxalate]
13 nM	O=C(c1c[nH]c2cccc(OCc3ccccc3)c12)C1CSC(c2cccnc2)N1 (centres unmarked) [Example 24, 3-[2-(3-pyridinyl)thiazolid-4-oyl-4-phenylmethoxyindole oxalate]
360 nM	O=C(C1CSC(c2cccnc2)S1)n1ccc2ccccc21 (centres unmarked) [Example 26, 1-[2-(3-pyridinyl)dithiolan-4-oyl]indole oxalate]
1000 nM	O=C(c1cn(S(=O)(=O)c2ccccc2)c2ccccc12)C1CSC(c2cccnc2)S1 (centres unmarked) [Example 32, 1-phenylsulfonyl 3-[2-(3-pyridinyl)dithiolan-4-oyl]indole oxalate]

same assay, conditions: Ki (PAF Receptor Binding Activity), 0.6 nM [3H]C18-PAF, 60 min, 22-23 °C, Ki from IC50 (Cheng and Prusoff)

Molecule	Ki
Cc1ccc2c(c1)cc(C)n2C(=O)C1CSC(c2cccnc2)N1 (centres unmarked) [Example 4, 1-[2-(3-pyridinyl)thiazolid-4-oyl]-2,5-dimethylindole]	46 nM
O=C(C1CSC(c2cccnc2)N1)n1ccc2c(Br)cccc21 (centres unmarked) [Example 6, 1-[2-(3-pyridinyl)thiazolid-4-oyl]-4-bromoindole dihydrochloride]	53 nM
O=C(C1CSC(c2cccnc2)N1)n1ccc2cc(Cl)ccc21 (centres unmarked) [Example 9, 1-[2-(3-pyridinyl)thiazolid-4-oyl]-5-chloroindole dihydrochloride]	140 nM
N#Cc1ccc2c(ccn2C(=O)C2CSC(c3cccnc3)N2)c1 (centres unmarked) [Example 10, 1-[2-(3-pyridinyl)thiazolid-4-oyl]-5-cyanoindole dihydrochloride]	2100 nM
COc1cc2ccn(C(=O)C3CSC(c4cccnc4)N3)c2cc1OC (centres unmarked) [Example 13, 1-[2-(3-pyridinyl)thiazolid-4-oyl]-5,6-dimethoxyindole dihydrochloride]	2400 nM
O=C(C1CSC(c2cccnc2)N1)n1ccc2ccc(F)cc21 (centres unmarked) [Example 14, 1-[2-(3-pyridinyl)thiazolid-4-oyl]-6-fluoroindole]	67 nM
O=C(C1CSC(c2cccnc2)N1)n1ccc2ccc(Br)cc21 (centres unmarked) [Example 16, 1-[2-(3-pyridinyl)thiazolid-4-oyl]-6-bromoindole]	25 nM
O=C(C1CSC(c2cccnc2)N1)n1ccc2cccnc21 (centres unmarked) [Example 19, 1-[2-(3-pyridinyl)thiazolid-4-oyl]-7-azaindole]	12500 nM
O=C(c1c[nH]c2ccccc12)C1CSC(c2cccnc2)N1 (centres unmarked) [Example 20, 3-[2-(3-pyridinyl)thiazolid-4-oyl]indole oxalate]	4 nM
Cn1cc(C(=O)C2CSC(c3cccnc3)N2)c2ccccc21 (centres unmarked) [Example 22, 1-methyl-3-[2-3-pyridinyl)thiazolid-4-oyl]indole dihydrochloride]	13 nM
Cc1cccc2c(C(=O)C3CSC(c4cccnc4)N3)c[nH]c12 (centres unmarked) [Example 25, 3-(2-(3-pyridinyl)thiazolid-4-oyl)-7-methylindole oxalate]	5 nM
CCn1cc(C(=O)C2CSC(c3cccnc3)N2)c2ccccc21 (centres unmarked) [Example 27, 1-ethyl-3-[2-(3-pyridinyl)thiazolid-4-oyl]indole oxalate]	6 nM
